From ChEMBL document CHEMBL1201862, “PubChem BioAssay data set” (2004)
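In this assay, cells in 96-well plates receive the compound at five concentrations for 48 hours. Endpoints are linearly interpolated between the surrounding concentrations. Here, GI50 denotes the concentration required for 50% inhibition of growth.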 The source made the active and inactive calls. No stated cut-off is given here; in the data, active = GI50 up to about 1.1 µM and inactive = higher.

Key:
Assay in all cases: NCI tumour cell line growth inhibition, 48 h
COLO 205 = tested on: COLO 205
SW-620 = tested on: SW-620
IGROV-1 = tested on: IGROV-1
KM12 = tested on: KM12
HCT-116 = tested on: HCT-116
NCI-H23 = tested on: NCI-H23
DU-145 = tested on: DU-145
HT-29 = tested on: HT-29
CAKI-1 = tested on: CAKI-1
SK-MEL-28 = tested on: SK-MEL-28
T47D = tested on: T47D
OVCAR-5 = tested on: OVCAR-5
MDA-N = tested on: MDA-N
MOLT-4 = tested on: MOLT-4
SNB-75 = tested on: SNB-75
PC-3 = tested on: PC-3
SK-MEL-5 = tested on: SK-MEL-5
NCI/ADR-RES = tested on: NCI/ADR-RES
NCI-H460 = tested on: NCI-H460
SNB-19 = tested on: SNB-19
Hs-578T = tested on: Hs-578T
UACC-257 = tested on: UACC-257
A498 = tested on: A498
SN12C = tested on: SN12C
MDA-MB-231 = tested on: MDA-MB-231
SF-295 = tested on: SF-295
M14 = tested on: M14
MDA-MB-435 = tested on: MDA-MB-435
A549 = tested on: A549
SK-OV-3 = tested on: SK-OV-3
RPMI-8226 = tested on: RPMI-8226
HOP-62 = tested on: HOP-62
786-0 = tested on: 786-0
OVCAR-4 = tested on: OVCAR-4
SF-539 = tested on: SF-539
UO-31 = tested on: UO-31
HOP-92 = tested on: HOP-92
SF-268 = tested on: SF-268
K562 = tested on: K562
UACC-62 = tested on: UACC-62
MCF7 = tested on: MCF7
NCI-H226 = tested on: NCI-H226
NCI-H522 = tested on: NCI-H522
EKVX = tested on: EKVX
HL-60 = tested on: HL-60
BT-549 = tested on: BT-549
LOX IMVI = tested on: LOX IMVI
U-251 = tested on: U-251
CCRF-CEM = tested on: CCRF-CEM
ACHN = tested on: ACHN
TK-10 = tested on: TK-10
SR = tested on: SR
SK-MEL-2 = tested on: SK-MEL-2
HCC 2998 = tested on: HCC 2998
OVCAR-8 = tested on: OVCAR-8
HCT-15 = tested on: HCT-15
Malme-3M = tested on: Malme-3M
RXF 393 = tested on: RXF 393
OVCAR-3 = tested on: OVCAR-3

## CC1CC2CCCC(=O)C2=C(O)O1 (centres undefined)
COLO 205
  GI50: > 100 µM (inactive)
SW-620
  GI50: > 100 µM (inactive)
IGROV-1
  GI50: > 100 µM (inactive)
KM12
  GI50: > 100 µM (inactive)
HCT-116
  GI50: > 100 µM (inactive)
NCI-H23
  GI50: > 100 µM (inactive)
DU-145
  GI50: > 100 µM (inactive)
HT-29
  GI50: > 100 µM (inactive)
CAKI-1
  GI50: > 100 µM (inactive)
SK-MEL-28
  GI50: > 100 µM (inactive)
T47D
  GI50: > 100 µM (inactive)
OVCAR-5
  GI50: > 100 µM (inactive)
MDA-N
  GI50: > 100 µM (inactive)
MOLT-4
  GI50: > 100 µM (inactive)
SNB-75
  GI50: > 100 µM (inactive)
PC-3
  GI50: > 100 µM (inactive)
SK-MEL-5
  GI50: > 100 µM (inactive)
NCI/ADR-RES
  GI50: > 100 µM (inactive)
NCI-H460
  GI50: > 100 µM (inactive)
SNB-19
  GI50: 31.6 µM (inactive)
Hs-578T
  GI50: > 100 µM (inactive)
UACC-257
  GI50: > 100 µM (inactive)
A498
  GI50: > 100 µM (inactive)
SN12C
  GI50: > 100 µM (inactive)
MDA-MB-231
  GI50: > 100 µM (inactive)
SF-295
  GI50: > 100 µM (inactive)
M14
  GI50: > 100 µM (inactive)
MDA-MB-435
  GI50: > 100 µM (inactive)
A549
  GI50: > 100 µM (inactive)
SK-OV-3
  GI50: > 100 µM (inactive)
RPMI-8226
  GI50: > 100 µM (inactive)
HOP-62
  GI50: > 100 µM (inactive)
786-0
  GI50: > 100 µM (inactive)
OVCAR-4
  GI50: > 100 µM (inactive)
SF-539
  GI50: > 100 µM (inactive)
UO-31
  GI50: > 100 µM (inactive)
HOP-92
  GI50: > 100 µM (inactive)
SF-268
  GI50: > 100 µM (inactive)
K562
  GI50: > 100 µM (inactive)
UACC-62
  GI50: > 100 µM (inactive)
MCF7
  GI50: > 100 µM (inactive)
NCI-H226
  GI50: > 100 µM (inactive)
NCI-H522
  GI50: > 100 µM (inactive)
EKVX
  GI50: 86.7 µM (inactive)
HL-60
  GI50: > 100 µM (inactive)
BT-549
  GI50: 81.5 µM (inactive)
LOX IMVI
  GI50: > 100 µM (inactive)
U-251
  GI50: > 100 µM (inactive)
CCRF-CEM
  GI50: > 100 µM (inactive)
ACHN
  GI50: > 100 µM (inactive)
TK-10
  GI50: > 100 µM (inactive)
SR
  GI50: > 100 µM (inactive)
SK-MEL-2
  GI50: > 100 µM (inactive)
HCC 2998
  GI50: > 100 µM (inactive)
OVCAR-8
  GI50: > 100 µM (inactive)
HCT-15
  GI50: > 100 µM
Malme-3M
  GI50: > 100 µM (inactive)
RXF 393
  GI50: > 100 µM (inactive)
OVCAR-3
  GI50: > 100 µM (inactive)
